Reference: article PMC12155096 (International Journal of Molecular Sciences, 2025)
Where a name gives a salt, the structure may show the parent alone. Read-outs that look alike come from different tables or passages of the source.

How the values were obtained:
[1] = biological target: Photinus pyralis (firefly) luciferase (Photinus pyralis, UniProt P08659); test: biochemical; assay type: biochemical
CYP3A4 [2] = biological target: T1, CYP3A4 (Homo sapiens, UniProt P08684)
human CYP1A2 [3] = biological target: T2, human CYP1A2 (Homo sapiens, UniProt P05177); test: biochemical; conditions: for AC50: CYP1A2 AC50 (half-maximal activity concentration)
T2 sequence (P05177 1-516): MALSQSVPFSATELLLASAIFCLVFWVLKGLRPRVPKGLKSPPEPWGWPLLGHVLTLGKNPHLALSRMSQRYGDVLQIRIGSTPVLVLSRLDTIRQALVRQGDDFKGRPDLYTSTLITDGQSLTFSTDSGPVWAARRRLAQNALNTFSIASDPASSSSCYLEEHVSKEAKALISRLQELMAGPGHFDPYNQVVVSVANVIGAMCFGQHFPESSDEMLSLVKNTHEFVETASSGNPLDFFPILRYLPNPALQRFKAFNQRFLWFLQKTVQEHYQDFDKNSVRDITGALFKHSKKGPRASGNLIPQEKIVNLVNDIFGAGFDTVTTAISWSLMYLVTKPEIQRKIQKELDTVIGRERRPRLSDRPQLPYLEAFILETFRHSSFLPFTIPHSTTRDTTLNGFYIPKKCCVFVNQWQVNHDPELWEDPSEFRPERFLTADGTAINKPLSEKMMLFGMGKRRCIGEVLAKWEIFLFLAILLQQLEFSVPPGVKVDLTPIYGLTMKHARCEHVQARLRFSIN

human CYP2C9 [4] = biological target: T3, human CYP2C9 (Homo sapiens, UniProt P11712); test: biochemical; conditions: for AC50: CYP2C9 AC50 (half-maximal activity concentration)
human CYP2C19 [5] = biological target: T4, human CYP2C19 (Homo sapiens, UniProt P33261); test: biochemical; conditions: for AC50: CYP2C19 AC50 (half-maximal activity concentration)
human CYP2D6 [6] = biological target: T5, human CYP2D6 (Homo sapiens, UniProt P10635); test: biochemical; conditions: for AC50: CYP2D6 AC50 (half-maximal activity concentration)
CYP3A4 [7] = biological target: T1, CYP3A4; test: biochemical; conditions: for AC50: CYP3A4 AC50 (half-maximal activity concentration)
human CYP2C9 [8] = biological target: T3, human CYP2C9
human CYP1A2 [9] = biological target: T2, human CYP1A2
human CYP2C19 [10] = biological target: T4, human CYP2C19
human CYP2D6 [11] = biological target: T5, human CYP2D6; conditions: human; for CYP2D6 Efficacy: 1 h
[12] = CYP1A2 IC50 (half-maximal inhibitory concentration)
[13] = CYP2C9 IC50 (half-maximal inhibitory concentration)
[14] = CYP2C19 IC50 (half-maximal inhibitory concentration)
[15] = CYP2D6 IC50 (half-maximal inhibitory concentration)
[16] = CYP3A4 IC50 (half-maximal inhibitory concentration)

T3 sequence (P11712 whole entry): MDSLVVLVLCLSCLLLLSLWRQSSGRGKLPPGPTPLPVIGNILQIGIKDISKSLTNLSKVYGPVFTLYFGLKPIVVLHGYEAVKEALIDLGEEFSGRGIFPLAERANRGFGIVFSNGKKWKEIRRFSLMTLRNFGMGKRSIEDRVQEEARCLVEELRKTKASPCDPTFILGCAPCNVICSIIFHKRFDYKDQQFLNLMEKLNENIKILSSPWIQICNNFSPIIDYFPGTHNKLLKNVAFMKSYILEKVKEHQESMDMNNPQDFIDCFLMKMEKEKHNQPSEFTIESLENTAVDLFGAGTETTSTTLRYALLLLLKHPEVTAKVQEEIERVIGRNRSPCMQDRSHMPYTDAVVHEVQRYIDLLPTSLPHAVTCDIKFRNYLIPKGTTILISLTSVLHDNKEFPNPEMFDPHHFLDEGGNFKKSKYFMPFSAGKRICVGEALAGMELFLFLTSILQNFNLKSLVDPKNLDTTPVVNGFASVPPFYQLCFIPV
T1 sequence (P08684 whole entry): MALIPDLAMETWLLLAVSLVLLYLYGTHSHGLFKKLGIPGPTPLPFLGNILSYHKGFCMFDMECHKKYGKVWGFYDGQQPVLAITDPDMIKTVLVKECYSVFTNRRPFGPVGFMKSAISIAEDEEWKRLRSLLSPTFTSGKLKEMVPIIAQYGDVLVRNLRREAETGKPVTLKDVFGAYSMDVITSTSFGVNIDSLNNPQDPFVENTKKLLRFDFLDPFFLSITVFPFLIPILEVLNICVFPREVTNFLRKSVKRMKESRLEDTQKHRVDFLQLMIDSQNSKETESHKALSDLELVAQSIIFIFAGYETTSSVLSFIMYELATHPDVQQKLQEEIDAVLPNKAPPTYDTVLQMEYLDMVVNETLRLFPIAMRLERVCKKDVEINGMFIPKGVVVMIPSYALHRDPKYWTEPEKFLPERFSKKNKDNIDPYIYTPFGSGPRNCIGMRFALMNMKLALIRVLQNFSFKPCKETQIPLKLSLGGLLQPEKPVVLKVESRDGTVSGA
Sequence of Photinus pyralis (firefly) luciferase (P08659 whole entry): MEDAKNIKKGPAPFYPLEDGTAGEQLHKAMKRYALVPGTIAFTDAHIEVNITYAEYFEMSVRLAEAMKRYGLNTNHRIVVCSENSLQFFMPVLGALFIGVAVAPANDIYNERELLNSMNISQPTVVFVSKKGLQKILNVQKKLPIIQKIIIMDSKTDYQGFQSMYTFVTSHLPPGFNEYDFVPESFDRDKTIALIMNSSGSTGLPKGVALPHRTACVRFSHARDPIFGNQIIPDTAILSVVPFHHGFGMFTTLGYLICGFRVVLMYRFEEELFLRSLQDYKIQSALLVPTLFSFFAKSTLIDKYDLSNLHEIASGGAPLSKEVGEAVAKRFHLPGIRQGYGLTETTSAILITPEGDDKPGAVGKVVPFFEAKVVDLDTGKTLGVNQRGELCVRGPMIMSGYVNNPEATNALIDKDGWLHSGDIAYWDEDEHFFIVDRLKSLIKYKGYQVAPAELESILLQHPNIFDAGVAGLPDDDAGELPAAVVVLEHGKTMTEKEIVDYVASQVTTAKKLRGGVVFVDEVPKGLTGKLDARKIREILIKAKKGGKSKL
T4 sequence (P33261 whole entry): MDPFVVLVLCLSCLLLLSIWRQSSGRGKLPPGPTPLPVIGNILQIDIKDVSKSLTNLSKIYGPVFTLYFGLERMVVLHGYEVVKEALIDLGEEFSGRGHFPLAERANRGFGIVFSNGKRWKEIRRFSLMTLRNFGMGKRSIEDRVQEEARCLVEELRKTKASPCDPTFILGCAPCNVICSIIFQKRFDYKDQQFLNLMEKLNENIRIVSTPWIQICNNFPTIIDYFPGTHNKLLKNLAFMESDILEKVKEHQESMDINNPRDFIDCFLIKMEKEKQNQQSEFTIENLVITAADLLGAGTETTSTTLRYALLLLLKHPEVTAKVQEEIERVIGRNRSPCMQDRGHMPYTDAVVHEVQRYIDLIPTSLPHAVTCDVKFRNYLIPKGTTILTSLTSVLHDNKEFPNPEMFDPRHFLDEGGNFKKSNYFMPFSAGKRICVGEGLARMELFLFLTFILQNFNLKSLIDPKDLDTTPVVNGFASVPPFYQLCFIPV
T5 sequence (P10635 whole entry): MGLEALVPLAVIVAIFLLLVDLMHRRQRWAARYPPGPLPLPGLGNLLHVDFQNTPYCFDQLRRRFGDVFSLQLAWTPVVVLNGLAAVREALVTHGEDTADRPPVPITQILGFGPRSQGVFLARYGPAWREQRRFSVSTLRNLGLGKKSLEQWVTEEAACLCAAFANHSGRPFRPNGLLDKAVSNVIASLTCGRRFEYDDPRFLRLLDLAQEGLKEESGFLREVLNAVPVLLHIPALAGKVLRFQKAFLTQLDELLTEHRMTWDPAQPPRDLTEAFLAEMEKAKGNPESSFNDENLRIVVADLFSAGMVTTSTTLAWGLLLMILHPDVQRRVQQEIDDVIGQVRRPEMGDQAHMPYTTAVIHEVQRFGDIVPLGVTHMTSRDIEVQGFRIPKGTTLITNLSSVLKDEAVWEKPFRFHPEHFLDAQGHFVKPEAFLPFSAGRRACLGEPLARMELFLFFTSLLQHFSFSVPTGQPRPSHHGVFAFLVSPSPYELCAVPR

With Cc1ccc2c(c1N)C(=O)c1ccccc1C2=O [1-Amino-2-methylanthraquinone] the IC50 [1] was 5.87 µM, the “CYP3A4 IC50 (half-maximal inhibitory concentration)” value (CYP3A4 [2]) was 0.32 ± 0.14 (91 ± 19) µM and the AC50 (human CYP1A2 [3]) was 0.58 µM. The IC50 (human CYP1A2 [3]; [12]) was 0.58 µM, the AC50 (human CYP2C9 [4]) was 3.36 µM and the IC50 (human CYP2C9 [4]; [13]) was 3.36 µM. The AC50 (human CYP2C19 [5]) was 5.66 µM, the IC50 (human CYP2C19 [5]; [14]) was 5.66 µM and the AC50 (human CYP2D6 [6]) was 5.59 µM. The IC50 (human CYP2D6 [6]; [15]) was 5.59 µM and the AC50 (CYP3A4 [7]) was 0.32 µM.

In the case of C=CCOc1cc(Cl)ccc1C(=O)NCCN(CC)CC [Alloclamide], the “Luciferase IC50 (half-maximal inhibitory concentration)” value [1] is reported as “Inactive”, the “CYP2C9 IC50 (half-maximal inhibitory concentration)” value (human CYP2C9 [8]) is reported as “Inactive” and the IC50 (human CYP1A2 [3]) is reported as 3.34 µM. For the same compound, the IC50 (human CYP2C19 [5]) was 26.8 µM, the IC50 (human CYP2D6 [6]) was 0.28 µM and the IC50 (CYP3A4 [7]) was 16.8 µM.

For CN(C)c1ccc(C(=N)c2ccc(N(C)C)cc2)cc1 [Auramine hydrochloride], the “Luciferase IC50 (half-maximal inhibitory concentration)” value [1] was “Inactive”, the “CYP2C9 IC50 (half-maximal inhibitory concentration)” value (human CYP2C9 [8]) was “Inactive” and the IC50 (human CYP1A2 [3]; [12]) was 25.3 µM. It also gave an IC50 (human CYP2C19 [5]; [14]) of 21 µM, an IC50 (human CYP2D6 [6]; [15]) of 0.08 µM and an IC50 (CYP3A4 [7]; [16]) of 39.3 µM.

CC(O)(c1ccc(Cl)cc1)c1ccc(Cl)cc1 [Chlorfenethol] was tested, and the “Luciferase IC50 (half-maximal inhibitory concentration)” value [1] was “Inactive”, the “CYP3A4 IC50 (half-maximal inhibitory concentration)” value (CYP3A4 [2]) was 11.76 ± 1.5 (55 ± 6) µM and the AC50 (human CYP1A2 [3]) was 30.6 µM. It also gave an IC50 (human CYP1A2 [3]; [12]) of 30.6 µM, an AC50 (human CYP2C9 [4]) of 7.68 µM and an IC50 (human CYP2C9 [4]; [13]) of 7.68 µM. For the same compound, the AC50 (human CYP2C19 [5]) was 0.12 µM, the IC50 (human CYP2C19 [5]; [14]) was 0.12 µM and the AC50 (human CYP2D6 [6]) was 55.5 µM. The IC50 (human CYP2D6 [6]; [15]) was 55.5 µM and the AC50 (CYP3A4 [7]) was 11.8 µM.

With CCOP(=O)(OCC)OC(=CCl)c1ccc(Cl)cc1Cl [Chlorfenvinphos] the “Luciferase IC50 (half-maximal inhibitory concentration)” value [1] was “Inactive”, the “CYP3A4 IC50 (half-maximal inhibitory concentration)” value (CYP3A4 [2]) was 1.18 ± 0.21 (70 ± 1) µM and the AC50 (human CYP1A2 [3]) was 6.58 µM. The IC50 (human CYP1A2 [3]; [12]) was 6.58 µM, the IC50 (human CYP2C9 [4]) was 31.9 µM and the AC50 (human CYP2C9 [4]) was 31.9 µM. For the same compound, the AC50 (human CYP2C19 [5]) was 0.83 µM, the IC50 (human CYP2C19 [5]; [14]) was 0.83 µM and the IC50 (human CYP2C19 [5]; IC50 CYP2C19 assay) was 0.77 µM. It also gave an IC50 (human CYP2D6 [6]) of 37 µM, an AC50 (human CYP2D6 [6]) of 37 µM and an AC50 (CYP3A4 [7]) of 1.18 µM.

For CN1CCc2cc(Cl)c(O)cc2[C@H]2c3ccccc3CC[C@@H]21 [Ecopipam], the “Luciferase IC50” value [1] was “Inactive”, the “CYP1A2 IC50” value (human CYP1A2 [9]) was “Inactive” and the “CYP2C9 IC50” value (human CYP2C9 [8]) was “Inactive”. The “CYP2C19 IC50” value (human CYP2C19 [10]) was “Inactive”, the “CYP3A4 IC50” value (CYP3A4 [2]) was 1.89 ± 0.26 (95 ± 11) µM and the AC50 (human CYP2D6 [6]) was 0.01 µM. For the same compound, the IC50 (human CYP2D6 [6]; CYP2D6 IC50) was 0.01 µM and the AC50 (CYP3A4 [7]) was 1.89 µM.

CC(CCc1ccccc1)NCC(O)c1ccc(O)c(C(N)=O)c1 (stereo not shown) [Labetalol hydrochloride] was tested, and the “Luciferase IC50 (half-maximal inhibitory concentration)” value [1] was “Inactive”, the “CYP1A2 IC50 (half-maximal inhibitory concentration)” value (human CYP1A2 [9]) was “Inactive” and the “CYP2C9 IC50 (half-maximal inhibitory concentration)” value (human CYP2C9 [8]) was “Inactive”. The “CYP3A4 IC50 (half-maximal inhibitory concentration)” value (CYP3A4 [2]) was 34.77 ± 1.39 (96 ± 9) µM, the AC50 (human CYP2D6 [6]) was 0.62 µM and the IC50 (human CYP2D6 [6]; [15]) was 0.62 µM. The AC50 (CYP3A4 [7]) was 34.8 µM.

CCCCC(CC)CN1C(=O)C2C3C=CC(C3)C2C1=O (stereo not shown) [MGK-264] was tested, and the “Luciferase IC50” value [1] was “Inactive”, the “CYP2D6 Efficacy” value (human CYP2D6 [11]) was 31.36 ± 8.74 (-86 ± 27) % and the IC50 (human CYP1A2 [3]) was 18.6 µM. The IC50 (human CYP2C9 [4]) was 10.1 µM, the IC50 (human CYP2C19 [5]) was 4.9 µM and the IC50 (human CYP2D6 [6]) was 31.4 µM. The IC50 (CYP3A4 [7]) was 0.86 µM.

In the case of CC1(C)CCC(Cc2ccc(Cl)cc2)C1(O)Cn1cncn1 (stereo not shown) [Metconazole], the “Luciferase IC50 (half-maximal inhibitory concentration)” value [1] is reported as “Inactive”, the “CYP2C9 Efficacy (in parenthesis)” value (human CYP2C9 [8]; human) is reported as 0.23 ± 0.11 (-96 ± 19) % and the “CYP2C19 Efficacy (in parenthesis)” value (human CYP2C19 [10]; human) is reported as 0.17 ± 0.05 (-148 ± 4) %. The “CYP2D6 Efficacy (in parenthesis)” value (human CYP2D6 [11]) was 41.91 ± 7.54 (-75 ± 4) %, the “CYP3A4 Efficacy (in parenthesis)” value (CYP3A4 [2]) was 0.06 ± 0.04 (-85 ± 6) % and the IC50 (human CYP2C9 [4]; [13]) was 0.23 µM. The IC50 (human CYP2C19 [5]; [14]) was 0.17 µM, the IC50 (human CYP2D6 [6]; [15]) was 41.9 µM and the IC50 (CYP3A4 [7]; [16]) was 0.06 µM.

With COc1ccc(S(=O)(=O)N2C(=O)[C@@](c3ccccc3OC)(N3C[C@H](O)C[C@H]3C(=O)N(C)C)c3cc(Cl)ccc32)c(OC)c1 [Nelivaptan] the “Luciferase IC50 (half-maximal inhibitory concentration)” value [1] was “Inactive”, the “CYP2D6 Efficacy” value (human CYP2D6 [11]) was 55.12 ± 29.45 (-53 ± 5) % and the IC50 (human CYP1A2 [3]) was 53.3 ± 25 µM. The IC50 (human CYP2C9 [4]) was 44.5 ± 24.6 µM, the IC50 (human CYP2C19 [5]) was 27.6 ± 19.5 µM and the IC50 (human CYP2D6 [6]) was 55.1 ± 29.4 µM. It also gave an IC50 (CYP3A4 [7]) of 0.07 ± 0.02 µM.

For O=c1[nH]c2ccccc2n1CCCN1CCN(C(c2ccccc2)c2ccccc2)CC1 [Oxatomide], the “Luciferase IC50” value [1] was “Inactive”, the “CYP1A2 IC50” value (human CYP1A2 [9]) was “Inactive” and the “CYP2C19 AC50 (half-maximal activity concentration)” value (human CYP2C19 [10]) was “Inconclusive inhibitor”. For the same compound, the “CYP3A4 IC50” value (CYP3A4 [2]) was 1.39 ± 0.16 (164 ± 14) µM, the AC50 (human CYP2C9 [4]) was 25.3 µM and the IC50 (human CYP2C9 [4]; CYP2C9 IC50) was 25.3 µM. For the same compound, the IC50 (human CYP2C19 [5]; CYP2C19 IC50) was 33.2 µM, the AC50 (human CYP2D6 [6]) was 0.62 µM and the IC50 (human CYP2D6 [6]; CYP2D6 IC50) was 0.62 µM. For the same compound, the AC50 (CYP3A4 [7]) was 1.39 µM.
